Measurements from US8691993B2, “Piperidinyl naphthylacetic acids” (Hoffman-La Roche Inc., priority 2011, dated 2014).

Assays:
[1] = biological target: human CRTH2 receptor (Homo sapiens (Human), UniProt Q9Y5Y4); assay: Calcium Flux Assay Using Fluorometric Imaging Plate Reader (FLIPR); type: cell-based; details: CHO-K1 cells transfected with G-alpha 16 and human CRTH2 receptor; DK-PGD2 ligand; 1 hour compound incubation
Description: Calcium Flux Assay Using Fluorometric Imaging Plate Reader (FLIPR)
CHO-K1 cells previously transfected with G-alpha 16 were subsequently transfected with the human CRTH2 receptor and the neomycin resistance gene. Following selection in 800 μg/mL G418 (geneticin), individual clones were assayed for their receptor expression based on staining with an anti human CRTH2 IgG, followed by assaying for their response to 13,14-dihydro-15-keto Prostaglandin D2 (DK-PDG2) (ligand) in the Ca^2+ Flux assay. Positive clones were then cloned by limiting dilution cloning. The transfected cells were cultured in Ham's F-12 medium supplemented with 10% fetal bovine serum, 2 mM glutamine, 100 U/mL penicillin/100 μg/mL streptomycin, 200 μg/mL hygromycin B, and 800 μg/mL G418 (geneticin). Cells were harvested with trypsin-EDTA (trypsin-ethylenediaminetetraacetic acid) and counted using ViaCount® reagent (from Guava Technologies, Inc. which contains two DNA-binding dyes that enable the reagent user to distinguish between viable and non-viable cells). The cell suspension volume was adjusted to 2.5×10^5 cells/mL with complete growth media. Aliquots of 50 μL were dispensed into BD Falcon™ 384 well black/clear microplates (from BD Biosciences, a division of Becton, Dickinson and Company) and the microplates were placed in a 37° C. CO2 incubator overnight. The following day, the microplates were used in the assay.
Loading Buffer containing dye (from the FLIPR® Calcium 3 Assay Kit from Molecular Devices, a division of MDS Analytical Technologies and MDS Inc.) was prepared by dissolving the contents of one bottle into 200 mL Hank's Balanced Salt Solution containing 20 mM HEPES (4-(2-hydroxyethyl)-1-piperazineethanesulfonic acid) and 2.5 mM probenecid. Growth media was removed from the cell plates and 25 μL of Hank's Balanced Salt Solution (HBSS) containing 20 mM HEPES, 0.05% BSA and 2.5 mM probenecid was added to each well followed by 25 μL of diluted dye using a Multidrop dispenser. The plates were then incubated for 1 hour at 37° C.
During the incubation, test compound plates were prepared by adding 90 μL of HBSS/20 mM HEPES/0.005% BSA buffer to the 2 μL of serial diluted compounds. To prepare serial diluted compounds, 20 mM stocks of compounds were dissolved in 100% DMSO. The compound dilution plate was set up as follows: well #1 received 5 μL of compound plus 10 μL of DMSO. Wells 2-10 received 10 μL of DMSO. 5 μL was mixed and transferred from well #1 into well #2. 1:3 serial dilutions were continued out 10 steps. 2 μL of diluted compound was transferred into duplicate wells of a 384 well “assay plate” and then 90 μL of buffer was added.
After incubation, both the cell and “assay plate” plates were brought to the fluorometric imaging plate reader (FLIPR®) and 20 μL of the diluted compounds were transferred to the cell plates by the FLIPR®. Plates were then incubated for 1 hour at room temperature. After the 1 hour incubation, plates were returned to the FLIPR® and 20 μL of 4.5× concentrated ligand was added to the cell plates. During the assay, fluorescence readings were taken simultaneously from all 384 wells of the cell plate every 1.5 seconds. Five readings were taken to establish a stable baseline, then 20 μL of sample was rapidly (30 μL/sec) and simultaneously added to each well of the cell plate. The fluorescence was continuously monitored before, during and after sample addition for a total elapsed time of 100 seconds. Responses (increase in peak fluorescence) in each well following agonist addition were determined. The initial fluorescence reading from each well, prior to ligand stimulation, was used as a zero baseline value for the data from that well. The responses were expressed as % inhibition of the buffer control. […]

[2] = tested on: Th2 cells; assay: DK-PGD2-Induced IL-13 Production Assay in Th2 Cells; type: cell-based; details: inhibition of IL-13 production; human Th2 cells; 500 nM DK-PGD2; 4 hrs at 37° C.; ELISA
Description: DK-PGD2-Induced IL-13 Production Assay in Th2 Cells
Inhibition of 13,14-dihydro-15-keto Prostaglandin D2 (DK-PGD2)-induced IL-13 production in T helper type 2 (Th2) cells was applied to evaluate compound cellular potency.
Cultures of Th2 cells were established from blood of healthy human volunteers according to the following procedure. Peripheral blood mononuclear cells (PBMC) were first isolated from 50 mL of fresh blood by Ficoll-Hypaque density gradient centrifugation, followed by CD4^+ cell purification using a CD4^+ T Cell Isolation Kit II (from Miltenyi Biotec Inc.). The CD4^+ T cells were then differentiated to Th2 cells by culturing the cells in X-VIVO 15® medium (from Cambrex BioScience Walkersville Inc.) containing 10% human AB serum (serum of blood type AB from Invitrogen Corporation), 50 U/mL of recombinant human interleukin-2 (rhIL-2) (from PeproTech Inc.) and 100 ng/mL of recombinant human interleukin-4 (rhIL-4) (from PeproTech Inc.) for 7 days. The Th2 cells were isolated using a CD294 (CRTH2) MicroBead Kit (from Miltenyi Biotec Inc.) and amplified in X-VIVO 15® medium containing 10% human AB serum and 50 U/mL of rhIL-2 for 2 to 5 weeks. In general, 70% to 80% of the Th2 cells used in the assay are CRTH2-positive when analyzed by fluorescence-activated cell sorting using the BM16 antibody (as previously described) conjugated to Alexa Fluor 647.
The spontaneous production of IL-13 by Th2 cells was determined in the absence of DK-PGD2 stimulation and the value was subtracted from that in the presence of each compound for percent inhibition and IC50 calculations.
The percent inhibition of interleukin 13 (IL-13) production for a compound at various concentrations was calculated according to the following formula, [1-(IL-13 production in the presence of compound)/(IL-13 production in the presence of 0.15% DMSO)]×100. The IC50 value, defined as the concentration of a compound that is required for 50% inhibition of IL-13 production, was calculated by fitting the percent inhibition data for 7 concentrations to a sigmoidal dose-response (4 parameter logistic) model in the XLfit® software Excel add-in program [ID Business Solutions Ltd., model 205, where F(x)=(A+(B−A)/(1+((C/x)^D)))].

Chain of human CRTH2 receptor (Q9Y5Y4 whole entry): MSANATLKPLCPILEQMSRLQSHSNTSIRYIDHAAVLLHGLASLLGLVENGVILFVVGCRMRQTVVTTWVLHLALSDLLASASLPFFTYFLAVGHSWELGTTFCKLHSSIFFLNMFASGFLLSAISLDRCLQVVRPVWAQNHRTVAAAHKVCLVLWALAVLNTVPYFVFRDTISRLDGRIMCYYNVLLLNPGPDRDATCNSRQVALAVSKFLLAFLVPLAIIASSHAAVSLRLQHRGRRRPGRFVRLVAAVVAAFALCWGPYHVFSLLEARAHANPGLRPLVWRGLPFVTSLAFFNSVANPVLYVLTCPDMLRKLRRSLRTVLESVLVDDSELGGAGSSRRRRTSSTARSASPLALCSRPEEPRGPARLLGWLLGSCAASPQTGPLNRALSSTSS

IC50 [1] | IC50 [2] | Compound
– | 20 nM | Cc1c(CC(=O)O)cc2ccc(F)cc2c1C1CCN(C(=O)c2c(Cl)cccc2Cl)CC1 [Example 29, {4-[1-(2,6-Dichloro-benzoyl)-piperidin-4-yl]-6-fluoro-3-methyl-naphthalen-2-yl}-acetic acid]
– | 83 nM | Cc1c(CC(=O)O)cc2ccc(F)cc2c1C1CCN(C(=O)c2cc(F)ccc2F)CC1 [Example 30, {4-[1-(2,5-Difluoro-benzoyl)-piperidin-4-yl]-6-fluoro-3-methyl-naphthalen-2-yl}-acetic acid]
– | 117 nM | Cc1c(CC(=O)O)cc2ccc(F)cc2c1C1CCN(C(=O)Cc2ccccc2)CC1 [Example 31, [6-Fluoro-3-methyl-4-(1-phenylacetyl-piperidin-4-yl)-naphthalen-2-yl]-acetic acid]
– | 371 nM | Cc1c(CC(=O)O)cc2ccc(F)cc2c1C1CCN(C(=O)Nc2c(F)cccc2F)CC1 [Example 32, {4-[1-(2,6-Difluoro-phenylcarbamoyl)-piperidin-4-yl]-6-fluoro-3-methyl-naphthalen-2-yl}-acetic acid]
– | 30 nM | Cc1c(CC(=O)O)cc2ccc(F)cc2c1C1CCN(C(=O)Nc2ccc(Cl)cc2Cl)CC1 [Example 33, {4-[1-(2,4-Dichloro-phenylcarbamoyl)-piperidin-4-yl]-6-fluoro-3-methyl-naphthalen-2-yl}-acetic acid]
– | 59 nM | Cc1c(CC(=O)O)cc2ccc(F)cc2c1C1CCN(C(=O)Nc2ccccc2Cl)CC1 [Example 34, {4-[1-(2-Chloro-phenylcarbamoyl)-piperidin-4-yl]-6-fluoro-3-methyl-naphthalen-2-yl}-acetic acid]
– | 241 nM | COc1ccccc1NC(=O)N1CCC(c2c(C)c(CC(=O)O)cc3ccc(F)cc23)CC1 [Example 35, {6-Fluoro-4-[1-(2-methoxy-phenylcarbamoyl)-piperidin-4-yl]-3-methyl-naphthalen-2-yl}-acetic acid]
– | 437 nM | Cc1c(CC(=O)O)cc2ccc(F)cc2c1C1CCN(C(=O)Nc2cccc(C(F)(F)F)c2)CC1 [Example 36]

The next lines start with the compound.

Compound | IC50 [1] | IC50 [2]
O=C(O)Cc1cc(C2CCN(S(=O)(=O)c3ccccc3)CC2)c2cc(F)ccc2c1 [Example 1, [4-(1-Benzenesulfonyl-piperidin-4-yl)-6-fluoro-naphthalen-2-yl]-acetic acid] | 18 nM | –
Cc1ccc(S(=O)(=O)N2CCC(c3cc(CC(=O)O)cc4ccc(F)cc34)CC2)cc1 [Example 2, {6-Fluoro-4-[1-(toluene-4-sulfonyl)-piperidin-4-yl]-naphthalen-2-yl}-acetic acid] | 53 nM | –
O=C(O)Cc1cc(C2CCN(S(=O)(=O)c3ccccn3)CC2)c2cc(F)ccc2c1 [Example 3, {6-Fluoro-4-[1-(pyridine-2-sulfonyl)-piperidin-4-yl]-naphthalen-2-yl}-acetic acid] | 104 nM | –
O=C(O)Cc1cc(C2CCN(S(=O)(=O)c3cccnc3)CC2)c2cc(F)ccc2c1 [Example 4, {6-Fluoro-4-[1-(pyridine-3-sulfonyl)-piperidin-4-yl]-naphthalen-2-yl}-acetic acid] | 1740 nM | –
O=C(O)Cc1cc(C2CCN(S(=O)(=O)c3ccncc3)CC2)c2cc(F)ccc2c1 [Example 5, {6-Fluoro-4-[1-(pyridine-4-sulfonyl)-piperidin-4-yl]-naphthalen-2-yl}-acetic acid] | 898 nM | –
O=C(O)Cc1cc(C2CCN(S(=O)(=O)c3ccccc3Cl)CC2)c2cc(F)ccc2c1 [Example 6, {4-[1-(2-Chloro-benzenesulfonyl)-piperidin-4-yl]-6-fluoro-naphthalen-2-yl}-acetic acid] | 2.5 nM | –
O=C(O)Cc1cc(C2CCN(S(=O)(=O)c3cccc(Cl)c3)CC2)c2cc(F)ccc2c1 [Example 7, {4-[1-(3-Chloro-benzenesulfonyl)-piperidin-4-yl]-6-fluoro-naphthalen-2-yl}-acetic acid] | 95 nM | –
O=C(O)Cc1cc(C2CCN(S(=O)(=O)c3ccc(Cl)cc3)CC2)c2cc(F)ccc2c1 [Example 8, {4-[1-(4-Chloro-benzenesulfonyl)-piperidin-4-yl]-6-fluoro-naphthalen-2-yl}-acetic acid] | 42 nM | –
CS(=O)(=O)c1cccc(S(=O)(=O)N2CCC(c3cc(CC(=O)O)cc4ccc(F)cc34)CC2)c1 [Example 9, {6-Fluoro-4-[1-(3-methanesulfonyl-benzenesulfonyl)-piperidin-4-yl]-naphthalen-2-yl}-acetic acid] | 1150 nM | –
O=C(O)Cc1cc(C2CCN(S(=O)(=O)c3cc(Cl)ccc3Cl)CC2)c2cc(F)ccc2c1 [Example 10, {4-[1-(2,5-Dichloro-benzenesulfonyl)-piperidin-4-yl]-6-fluoro-naphthalen-2-yl}-acetic acid] | 3.5 nM | –
O=C(O)Cc1cc(C2CCN(S(=O)(=O)c3ccc(Cl)cc3Cl)CC2)c2cc(F)ccc2c1 [Example 11, {4-[1-(2,4-Dichloro-benzenesulfonyl)-piperidin-4-yl]-6-fluoro-naphthalen-2-yl}-acetic acid] | 4.8 nM | –
O=C(O)Cc1cc(C2CCN(S(=O)(=O)c3cc(Cl)cc(Cl)c3)CC2)c2cc(F)ccc2c1 [Example 12, {4-[1-(3,5-Dichloro-benzenesulfonyl)-piperidin-4-yl]-6-fluoro-naphthalen-2-yl}-acetic acid] | 404 nM | –
O=C(O)Cc1cc(C2CCN(S(=O)(=O)c3cc(C(F)(F)F)cc(C(F)(F)F)c3)CC2)c2cc(F)ccc2c1 [Example 13, {4-[1-(3,5-Bis-trifluoromethyl-benzenesulfonyl)-piperidin-4-yl]-6-fluoro-naphthalen-2-yl}-acetic acid] | 1350 nM | –
